Data reported in patent publication EP3184514A1, “AUTOPHAGY INHIBITORS” (Deutsches Krebsforschungszentrum, priority 2015, dated 2017).
Structures can show the parent of a compound that is named as a salt.

Legend:
LC3 proteins = assay: ITC and NMR titrations; assay type: binding; settings: by ITC and NMR
Method: All ITC experiments were performed at 25 °C using a VP-ITC microcalorimeter (MicroCal Inc, MA, USA) and analyzed with the ITC-Origin 7.0 software (MicroCal Inc.) based on a "one-site binding" reaction. […] Dilution heat of both compounds was measured upon titration of the stocks into buffer. All experiments were performed on a Bruker Avance spectrometer operating at a proton frequency of 500, 600 and 700 MHz at 298 K.

LC3B [1] = assay: cellular autophagy screening: LC3B spots by immunocytochemistry and automated confocal imaging; assay type: cell-based; settings: relative to negative DMSO control, 100 µM, 1 hour; for LC3B inhibition cell based Fold increase of LC3B spots [DMSO control 1.0]: Table 1-a, n.e. means no effect
Method: For screening purposes, cells were seeded in 384 well plates and left over night for attachment.
Afterwards, medium was removed and 4 % (w/v) paraformaldehyde (PFA) in PBS buffer was added to the cells for 20 minutes, incubated at room temperature. Cells were permeabilized with 0.1 % (v/v) Triton X-100 for 10 min at room temperature and washed with PBS. Cells were blocked with 3 % (w/v) bovine serum albumin (BSA) in PBS for 45 minutes at 37 °C and then incubated with anti-LC3B (PM036, MBL) or anti-p62 (PM045 or M162-3, MBL) primary antibody diluted in 0.3 % BSA (1:2000 or 1:500) for 1.5-2 hours at 37 °C. Cells were washed three times with PBS.
384 well plates were then analyzed with an automated confocal microscope Opera (PerkinElmer) enabling high throughput high content screening image analysis. […] A water immersion 60x objective was used for optical slicing and stacking (5x0.5 µm stacks). […] Signal was detected with a fast gated CCD camera. Acapella software (PerkinElmer) is an algorithm based high content imaging and analysis software used in multi-parametric multiplex assays. Acapella was used to follow cell viability (i.e. number of cells) and the number of LC3B and p62 spots per cell.
The LC3B protein is a ubiquitin-like protein that can be conjugated to phosphatidylethanolamine (PE) in the membrane of the incipient autophagosome. The nonlipidated and lipidated forms are usually referred to as LC3B-I and LC3B-II, respectively. […] Autophagic flux is often inferred on the basis of LC3B-II turnover, measured by western blot (WB) or immunofluorescence (IF) in the presence and absence of lysosomal degradation. […] Lysosomal degradation can be prevented e.g. through the use of compounds that neutralize the lysosomal pH such as Bafilomycin A1 (BafA1) or chloroquine (CQ). […] An additive or supra-additive effect in LC3B-II levels (WB) and LC3B-positive punctae numbers (IF) may indicate that the treatment enhances autophagic flux. […] This assay can be complemented by simultaneous monitoring of autophagosomal substrates or autophagosomal substrate receptors (e.g. SQSTM1/p62) by WB and/or IF. For example, an increase in LC3B-II levels in combination with the accumulation of SQSTM1/p62 is indicative of a blockage of the autophagy pathway at terminal stages.

LC3B [2] = biological target: T1, LC3B (Homo sapiens, UniProt Q9GZQ8); assay: AlphaScreen interaction displacement assay (GST-LC3B / biotin-LIRtide); assay type: binding; settings: Table 1-a; n.e. means no effect
T1 construct: made in house; host or cells: E. coli Rosetta (DE3)
Method: The AlphaScreen assay contained 50 mM Tris (pH 7.5), 100 mM NaCl, 0.01% Tween 20, 2 mM DTT, 1 % DMSO and 2-30 nM GST-LC3B and biotin-LIRtide 2-30 nM. The concentrations of GST-LC3B and biotin-LIRtide were experimentally chosen from a cross-titration assay exploring the different combinations of for each batch of protein used and when a new batch of buffer was prepared.
A gene encoding for human LC3B protein inserted in a pET-GST expression vector was used as a template. Rosetta (DE3) competent cells were transformed by started procedure, plated on an LB agar plate with ampicillin (100 µg/ml) and left overnight at 37 °C. Overnight culture was prepared from a single colony and shaken at 180 rpm at 37 °C. LB medium with ampicillin was inoculated with overnight culture (10 ml per 500 ml of LB) and shaken until the optical density at 600 nm (OD600) reached a value of approximately 0.6. Protein expression was then induced with 400 µM IPTG and further incubated for 4 hours. Bacterial culture was centrifuged for 20 minutes at 6000 rpm at 4 °C. The pellet was then resuspended in lysis buffer (20 mM TRIS-HCl pH 7.5, 10 mM EDTA, 5 mM EGTA, 150 mM NaCl, 0.5 % NP40, 1 % Triton X-100, 1 mM DTT, 2 mg/ml lysozyme, 0.05 U/µl benzonase, 1x protease inhibitor cocktail). Lysate was then stored at -20 °C over night. Sample was thawed in water bath and sonicated on ice (40 % amplitude, 30 seconds pulse/30 seconds pause cycle). Lysate was centrifuged at 10000xg at 4 °C for half an hour. Meanwhile, 500 µl of glutathione sepharose beads was equilibrated with lysis buffer and then added to the supernatant. The mixture was incubated and rotated at room temperature for 2 hours. After binding of the protein to the beads, beads were spun down at 500xg at 4 °C for 5 minutes. Pellet was then washed with cold wash buffer at least four times (20 mM Tris-HCl pH 7.5, 10 mM EDTA, 5 mM EGTA, 150 mM NaCl, 1 mM DTT), dried and stored in 5 % glycerol at 4 °C.

U2OS cells = assay: autophagic flux by confocal microscopy and western blotting; assay type: cell-based, Human; settings: 100 nM, alone
Method: […]. After harvesting, cells were lysed with radioimmunoprecipitation assay (RIPA) buffer (50 mM Tris-HCl, pH 7.5, 150 mM NaCl, 0.5 % deoxycholate, 1 % Triton X-100, 0.1 % SDS and 1x protease inhibitors) and left on ice for 30 minutes. Cell lysates were clarified by centrifugation at 10000xg for 20 min at 4 °C. Protein concentrations of the supernatants were determined by BCA assay and the absorbance was measured at 562 nm. SDS-PAGE and WB was performed.
For screening purposes, cells were seeded in 384 well plates and left over night for attachment. […]. For controls, cells were treated with 250 nM torin and/or 100 nM BafA1 for 2 hours.
Afterwards, medium was removed and 4 % (w/v) paraformaldehyde (PFA) in PBS buffer was added to the cells for 20 minutes, incubated at room temperature. Cells were permeabilized with 0.1 % (v/v) Triton X-100 for 10 min at room temperature and washed with PBS. Cells were blocked with 3 % (w/v) bovine serum albumin (BSA) in PBS for 45 minutes at 37 °C and then incubated with anti-LC3B (PM036, MBL) or anti-p62 (PM045 or M162-3, MBL) primary antibody diluted in 0.3 % BSA (1:2000 or 1:500) for 1.5-2 hours at 37 °C. Cells were washed three times with PBS. Secondary Alexa Fluor 488 - labeled antibodies (A-11008, Invitrogen) were diluted in 0.3 % BSA (1:2500) and incubated on cells for 15 minutes at 37 °C. Cells were washed once with PBS, incubated with DRAQ5 (#4084, Cell Signaling) diluted in PBS (1:5000) for 10 minutes and washed three times with PBS.
384 well plates were then analyzed with an automated confocal microscope Opera (PerkinElmer) enabling high throughput high content screening image analysis. […] Signal was detected with a fast gated CCD camera. […]
The LC3B protein is a ubiquitin-like protein that can be conjugated to phosphatidylethanolamine (PE) in the membrane of the incipient autophagosome. […] Autophagic flux is often inferred on the basis of LC3B-II turnover, measured by western blot (WB) or immunofluorescence (IF) in the presence and absence of lysosomal degradation. […]

| Kd (LC3 proteins) | LC3B inhibition cell free IC50 (LC3B [2]) | SMILES | LC3B inhibition cell based Fold increase of LC3B spots [DMSO control 1.0] (LC3B [1]) | LC3B Inhibition cell based Fold increase of LC3B spots (LC3B [1]; Table 2a) | amount of LC3B-positive spots and lipidated LC3B (LC3B-II) (U2OS cells) |
| --- | --- | --- | --- | --- | --- |
|  | n.e | Fc1ccc(CN2CN=C(SCc3ccc(Cl)cc3)NC2)cc1 [Compound I-15, 6-((4-chlorobenzyl)thio)-3-(4-fluorobenzyl)-1,2,3,4-tetrahydro-1,3,5-triazine] | 5.9 |  |  |
|  | n.e | Fc1ccc(CN2CN=C(SCc3cccc(Oc4ccccc4)c3)NC2)cc1 [Compound I-16, 3-(4-fluorobenzyl)-6-((3-phenoxybenzyl)thio)-1,2,3,4-tetrahydro-1,3,5-triazine] | n.e. |  |  |

The remaining lines, values behind:

| SMILES | Kd (LC3 proteins) | LC3B inhibition cell free IC50 (LC3B [2]) | LC3B inhibition cell based Fold increase of LC3B spots [DMSO control 1.0] (LC3B [1]) | LC3B Inhibition cell based Fold increase of LC3B spots (LC3B [1]; Table 2a) | amount of LC3B-positive spots and lipidated LC3B (LC3B-II) (U2OS cells) |
| --- | --- | --- | --- | --- | --- |
| CO[C@@H]1[C@@H](OC(N)=O)[C@@H](O)[C@H](Oc2ccc3c(O)c(NC(=O)c4ccc(O)c(CC=C(C)C)c4)c(=O)oc3c2C)OC1(C)C [Compound 2-0, Novobiocin Sodium Salt] | 5 to 50 µM |  |  |  |  |
| Fc1ccc(CN2CN=C(SCc3ccc(Br)cc3)NC2)cc1F [Compound I-17, 6-((4-bromobenzyl)thio)-3-(3,4-difluorobenzyl)-1,2,3,4-tetrahydro-1,3,5-triazine] |  | n.e | 4.2 |  |  |
| CO/C1=C\C(C)=C\[C@@H](C)[C@@H](O)[C@@H](C)C/C(C)=C/C=C/[C@H](OC)[C@@H]([C@@H](C)[C@@H](O)[C@H](C)[C@@]2(O)C[C@@H](O)[C@H](C)[C@@H](C(C)C)O2)OC1=O [bafilomycin A1, reference compound] |  |  | 5.5 | 5.5 | increased |
